Data from paper PMC9516332 (Frontiers in Oncology, 2022).
pIC50: −log10 of the molar value. Where two headings read alike, the source gives them in different places.

Legend:
[1] = molecular target: panel of 255 wild-type kinases (Homo sapiens, UniProt P06241); assay: Kinase panel profiling at 1 µmol/L (MSA or IMAP), percentage inhibition; type: biochemical; settings: kinase FYN [isoform a]; 1 µmol/L single concentration; read-out: %-inhibition at 1 µmol/L, FYN [isoform a]
[2] = molecular target: panel of 255 wild-type kinases (Homo sapiens, UniProt P48729); assay: as above; type: biochemical; settings: kinase CK1α; 1 µmol/L single concentration; read-out: %-inhibition at 1 µmol/L, CK1α
[3] = molecular target: panel of 255 wild-type kinases (Homo sapiens, UniProt Q13882); assay: as above; type: biochemical; settings: BRK kinase assay; 1 µmol/L single concentration; read-out: %-inhibition BRK
[4] = molecular target: panel of 255 wild-type kinases (Homo sapiens, UniProt Q16816); assay: as above; type: biochemical; settings: kinase PHKG1; 1 µmol/L single concentration; read-out: %-inhibition at 1 µmol/L, PHKG1
[5] = molecular target: panel of 255 wild-type kinases (Homo sapiens, UniProt Q9H422); assay: as above; type: biochemical; settings: kinase HIPK3; 1 µmol/L single concentration; read-out: %-inhibition at 1 µmol/L, HIPK3
AP-1060 (ETV6-NTRK3) = assay: Cell viability assay; settings: read-out: IC50 in cell proliferation assay
134 cancer cell lines = assay: Cell viability assay (ATPlite, 72 hours), IC50 on cancer cell line panel

CCn1c(=O)c(-c2cc(NC(=O)Nc3ccccc3)c(F)cc2Br)cc2cnc(NC)cc21 [ripretinib]
inhibition at 1 µM [1]: 23%
inhibition at 1 µM [2]: 11%
inhibition at 1 µM [3]: 36%
inhibition at 1 µM [4]: 1.76%
inhibition at 1 µM [5]: 4%
pIC50 (AP-1060 (ETV6-NTRK3)): 5.55
pIC50 (134 cancer cell lines; HEC-6, read-out: IC50 in cell proliferation assay): 5.73
pIC50 (134 cancer cell lines; Homo sapiens, 769-P, read-out: IC50 in cell proliferation assay): 5.59
pIC50 (134 cancer cell lines; Homo sapiens, 786-0, read-out: IC50 in cell proliferation assay): 5.67
pIC50 (134 cancer cell lines; Homo sapiens, A 172, read-out: IC50 in cell proliferation assay): 5.30
pIC50 (134 cancer cell lines; Homo sapiens, A204, read-out: IC50 in cell proliferation assay): 6.28
pIC50 (134 cancer cell lines; Homo sapiens, A498, read-out: IC50 in cell proliferation assay): 5.94
pIC50 (134 cancer cell lines; Homo sapiens, A549, read-out: IC50 in cell proliferation assay): 5.57
pIC50 (134 cancer cell lines; Homo sapiens, A704, read-out: IC50 in cell proliferation assay): 5.65
pIC50 (134 cancer cell lines; Homo sapiens, A-375, read-out: IC50 in cell proliferation assay): 5.53
pIC50 (134 cancer cell lines; Homo sapiens, A-427, read-out: IC50 in cell proliferation assay): 5.82
pIC50 (134 cancer cell lines; Homo sapiens, ACHN, read-out: IC50 in cell proliferation assay): 5.83
pIC50 (134 cancer cell lines; Homo sapiens, AN3-CA, read-out: IC50 in cell proliferation assay): 5.99
pIC50 (134 cancer cell lines; Homo sapiens, ASPC1, read-out: IC50 in cell proliferation assay): 5.12
pIC50 (134 cancer cell lines; Homo sapiens, AU565, read-out: IC50 in cell proliferation assay): 5.43
pIC50 (134 cancer cell lines; Homo sapiens, BT-20, read-out: IC50 in cell proliferation assay): 5.13
pIC50 (134 cancer cell lines; Homo sapiens, BT-474, read-out: IC50 in cell proliferation assay): 5.65
pIC50 (134 cancer cell lines; Homo sapiens, BT-549, read-out: IC50 in cell proliferation assay): 5.35
pIC50 (134 cancer cell lines; Homo sapiens, BXPC-3, read-out: IC50 in cell proliferation assay): 5.82
pIC50 (134 cancer cell lines; Homo sapiens, C-33-A, read-out: IC50 in cell proliferation assay): 5.32
pIC50 (134 cancer cell lines; Homo sapiens, CAL-27, read-out: IC50 in cell proliferation assay): 5.01
pIC50 (134 cancer cell lines; Homo sapiens, CCF-STTG1, read-out: IC50 in cell proliferation assay): < 4.50
pIC50 (134 cancer cell lines; Homo sapiens, CCRF-CEM, read-out: IC50 in cell proliferation assay): 5.30
pIC50 (134 cancer cell lines; Homo sapiens, COLO 205, read-out: IC50 in cell proliferation assay): 5.73
pIC50 (134 cancer cell lines; Homo sapiens, COLO-829, read-out: IC50 in cell proliferation assay): 5.60
pIC50 (134 cancer cell lines; Homo sapiens, DLD-1, read-out: IC50 in cell proliferation assay): 5.81
pIC50 (134 cancer cell lines; Homo sapiens, DU-145, read-out: IC50 in cell proliferation assay): 5.71
pIC50 (134 cancer cell lines; Homo sapiens, DU-4475, read-out: IC50 in cell proliferation assay): 5.47
pIC50 (134 cancer cell lines; Homo sapiens, Daoy, read-out: IC50 in cell proliferation assay): 5.69
pIC50 (134 cancer cell lines; Homo sapiens, DoTc2-4510, read-out: IC50 in cell proliferation assay): 5.21
pIC50 (134 cancer cell lines; Homo sapiens, EOL1, read-out: IC50 in cell proliferation assay): 9.20
pIC50 (134 cancer cell lines; Homo sapiens, FaDu, read-out: IC50 in cell proliferation assay): 5.52
pIC50 (134 cancer cell lines; Homo sapiens, G-361, read-out: IC50 in cell proliferation assay): 5.60
pIC50 (134 cancer cell lines; Homo sapiens, HCC827, read-out: IC50 in cell proliferation assay): 5.42
pIC50 (134 cancer cell lines; Homo sapiens, HCC4006, read-out: IC50 in cell proliferation assay): < 4.50
pIC50 (134 cancer cell lines; Homo sapiens, HCT-15, read-out: IC50 in cell proliferation assay): 5.59
pIC50 (134 cancer cell lines; Homo sapiens, HCT-116, read-out: IC50 in cell proliferation assay): 5.52
pIC50 (134 cancer cell lines; Homo sapiens, HEC-1, read-out: IC50 in cell proliferation assay): 5.87
pIC50 (134 cancer cell lines; Homo sapiens, HEC-1B, read-out: IC50 in cell proliferation assay): 6.37
pIC50 (134 cancer cell lines; Homo sapiens, HL-60, read-out: IC50 in cell proliferation assay): 5.74
pIC50 (134 cancer cell lines; Homo sapiens, HT, read-out: IC50 in cell proliferation assay): < 4.50
pIC50 (134 cancer cell lines; Homo sapiens, HT-1080, read-out: IC50 in cell proliferation assay): 5.77
pIC50 (134 cancer cell lines; Homo sapiens, Hs746T, read-out: IC50 in cell proliferation assay): 5.51
pIC50 (134 cancer cell lines; Homo sapiens, Hs-578T, read-out: IC50 in cell proliferation assay): 5.43
pIC50 (134 cancer cell lines; Homo sapiens, HuTu80, read-out: IC50 in cell proliferation assay): 5.80
pIC50 (134 cancer cell lines; Homo sapiens, J82, read-out: IC50 in cell proliferation assay): 5.64
pIC50 (134 cancer cell lines; Homo sapiens, Jurkat E6.1, read-out: IC50 in cell proliferation assay): 5.58
pIC50 (134 cancer cell lines; Homo sapiens, K562, read-out: IC50 in cell proliferation assay): 5.73
pIC50 (134 cancer cell lines; Homo sapiens, KATO III, read-out: IC50 in cell proliferation assay): 6.17
pIC50 (134 cancer cell lines; Homo sapiens, KG-1, read-out: IC50 in cell proliferation assay): 6.23
pIC50 (134 cancer cell lines; Homo sapiens, KLE, read-out: IC50 in cell proliferation assay): 5.00
pIC50 (134 cancer cell lines; Homo sapiens, KMS-11, read-out: IC50 in cell proliferation assay): 5.34
pIC50 (134 cancer cell lines; Homo sapiens, KU812, read-out: IC50 in cell proliferation assay): 6.07
pIC50 (134 cancer cell lines; Homo sapiens, Kasumi 1, read-out: IC50 in cell proliferation assay): 7.26
pIC50 (134 cancer cell lines; Homo sapiens, LC-2-ad, read-out: IC50 in cell proliferation assay): 5.27
